{"source": "PubChem BioAssay AID328", "about": "(DTP/NCI, 2004)", "test_system": "BDF1 mice, P388 leukemia ip, median survival T/C", "test": "NCI In Vivo Anticancer Drug Screen. Data for tumor model P388 Leukemia (intraperitoneal) in B6D2F1 (BDF1) mice", "conditions": "endpoint: median survival time, higher = longer survival", "outline": "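T/C = treated-group survival ÷ vehicle-control survival; tumour transplanted into mice before dosing.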", "key": {"[1]": {"conditions": "dose: 100.0 mg/kg/injection, schedule: Q04DX003 (ip), vehicle: saline"}, "[2]": {"conditions": "dose: 200.0 mg/kg/injection, schedule: Q04DX003 (ip), vehicle: saline"}, "[3]": {"conditions": "dose: 100.0 mg/kg/injection, schedule: Q01DX001 (ip), vehicle: Klucel (hydroxypropylcellulose) (HPC)"}, "[4]": {"conditions": "dose: 200.0 mg/kg/injection, schedule: Q01DX001 (ip), vehicle: Klucel (hydroxypropylcellulose) (HPC)"}, "[5]": {"conditions": "dose: 50.0 mg/kg/injection, schedule: Q01DX005 (ip), vehicle: saline with Tween-80"}, "[6]": {"conditions": "dose: 100.0 mg/kg/injection, schedule: Q01DX005 (ip), vehicle: saline with Tween-80"}, "[7]": {"conditions": "dose: 50.0 mg/kg/injection, schedule: Q01DX009 (ip), vehicle: saline with Tween-80"}, "[8]": {"conditions": "dose: 100.0 mg/kg/injection, schedule: Q01DX009 (ip), vehicle: saline with Tween-80"}, "[9]": {"conditions": "dose: 200.0 mg/kg/injection, schedule: Q01DX009 (ip), vehicle: saline with Tween-80"}}, "note": "“And” between values parts separate entries of the source, which are not always exact repeats. Equal values may be shown once. Toxic doses and inconclusive results are not listed.", "data": [{"compound": "CN1CCC=C(C(=O)N(c2ccccc2)c2ccccc2)C1", "values": [{"measurement": "T/C", "setting": "dose: 50.0 mg/kg/injection, schedule: Q04DX003 (ip), vehicle: saline", "result": "95 % of control"}, {"measurement": "T/C", "setting": "[1]", "result": "100 % of control"}, {"measurement": "T/C", "setting": "[2]", "result": "100 % of control"}]}, {"compound": "O=C(CBr)NCC1OC(n2cnc3c(=O)[nH]cnc32)C(O)C1O", "note": "(stereo unspecified)", "values": [{"measurement": "T/C", "setting": "dose: 50.0 mg/kg/injection, schedule: Q01DX001 (ip), vehicle: Klucel (hydroxypropylcellulose) (HPC)", "result": "109 % of control"}, {"measurement": "T/C", "setting": "[3]", "result": "101 % of control"}, {"measurement": "T/C", "setting": "[4]", "result": "106 % of control"}]}, {"compound": "CC1(C)OC(C)(C)c2c1nnc(-c1cccc([N+](=O)[O-])c1)[n+]2[O-]", "values": [{"measurement": "T/C", "setting": "[5]", "result": "88 % of control"}, {"measurement": "T/C", "setting": "[6]", "result": "93 % of control"}, {"measurement": "T/C", "setting": "dose: 200.0 mg/kg/injection, schedule: Q01DX005 (ip), vehicle: saline with Tween-80", "result": "104 % of control"}]}, {"compound": "CN(C)N=Nc1cn(C2OC(CO)C(O)C2O)c(=O)[nH]c1=O", "note": "(stereo unspecified)", "values": [{"measurement": "T/C", "setting": "dose: 9.0 mg/kg/injection, schedule: Q01DX009 (ip), vehicle: saline", "result": "115 % of control"}, {"measurement": "T/C", "setting": "dose: 18.0 mg/kg/injection, schedule: Q01DX009 (ip), vehicle: saline", "result": "110 % of control"}, {"measurement": "T/C", "setting": "dose: 25.0 mg/kg/injection, schedule: Q01DX009 (ip), vehicle: saline", "result": "100 % of control"}, {"measurement": "T/C", "setting": "dose: 37.5 mg/kg/injection, schedule: Q01DX009 (ip), vehicle: saline", "result": "300 % of control and 120 % of control"}, {"measurement": "T/C", "setting": "dose: 50.0 mg/kg/injection, schedule: Q01DX009 (ip), vehicle: saline", "result": "120 % of control"}, {"measurement": "T/C", "setting": "dose: 75.0 mg/kg/injection, schedule: Q01DX009 (ip), vehicle: saline", "result": "300 % of control and 150 % of control"}, {"measurement": "T/C", "setting": "dose: 150.0 mg/kg/injection, schedule: Q01DX009 (ip), vehicle: saline", "result": "300 % of control and 180 % of control"}, {"measurement": "T/C", "setting": "dose: 400.0 mg/kg/injection, schedule: Q01DX009 (ip), vehicle: saline", "result": "150 % of control"}]}, {"compound": "Cc1cccc(-n2nc3c(=O)n(C)c(=O)n(C)c3nc2=O)c1", "values": [{"measurement": "T/C", "setting": "dose: 100.0 mg/kg/injection, schedule: Q01DX001 (ip), vehicle: saline with Tween-80", "result": "88 % of control"}, {"measurement": "T/C", "setting": "dose: 200.0 mg/kg/injection, schedule: Q01DX001 (ip), vehicle: saline with Tween-80", "result": "96 % of control"}, {"measurement": "T/C", "setting": "dose: 400.0 mg/kg/injection, schedule: Q01DX001 (ip), vehicle: saline with Tween-80", "result": "92 % of control"}]}, {"compound": "COc1cccc(Nc2sc(C(=O)c3cc4cc(Cl)ccc4o3)c(N)c2C#N)c1", "values": [{"measurement": "T/C", "setting": "[7]", "result": "109 % of control"}, {"measurement": "T/C", "setting": "[8]", "result": "100 % of control"}, {"measurement": "T/C", "setting": "[9]", "result": "115 % of control"}]}, {"compound": "ClCCN(CCCl)CCCN1c2ccccc2Sc2ccc(Cl)cc21", "values": [{"measurement": "T/C", "setting": "dose: 3.12 mg/kg/injection, schedule: Q04DX003 (ip), vehicle: saline", "result": "97 % of control"}, {"measurement": "T/C", "setting": "dose: 6.25 mg/kg/injection, schedule: Q04DX003 (ip), vehicle: saline with Tween-80", "result": "154 % of control"}, {"measurement": "T/C", "setting": "dose: 6.25 mg/kg/injection, schedule: Q04DX003 (ip), vehicle: saline", "result": "97 % of control"}, {"measurement": "T/C", "setting": "dose: 12.5 mg/kg/injection, schedule: Q04DX003 (ip), vehicle: saline", "result": "94 % of control"}]}, {"compound": "O=S1ON=C(C2CCC(C3=NOS(=O)O3)C2)O1", "note": "(stereo unspecified)", "values": [{"measurement": "T/C", "setting": "dose: 25.0 mg/kg/injection, schedule: Q01DX005 (ip), vehicle: saline with Tween-80", "result": "97 % of control"}, {"measurement": "T/C", "setting": "[5]", "result": "104 % of control"}, {"measurement": "T/C", "setting": "[6]", "result": "114 % of control"}]}, {"compound": "C[As](C)SCC1OC2OC(C)(C)OC2C2OC(C)(C)OC12", "note": "(stereo unspecified)", "values": [{"measurement": "T/C", "setting": "[7]", "result": "110 % of control and 123 % of control"}]}, {"compound": "O=C(c1ccccc1)C(Br)c1ccc([N+](=O)[O-])cc1", "note": "(stereo unspecified)", "values": [{"measurement": "T/C", "setting": "dose: 100.0 mg/kg/injection, schedule: Q04DX003 (ip), vehicle: Klucel (hydroxypropylcellulose) (HPC)", "result": "100 % of control"}, {"measurement": "T/C", "setting": "dose: 200.0 mg/kg/injection, schedule: Q04DX003 (ip), vehicle: Klucel (hydroxypropylcellulose) (HPC)", "result": "90 % of control"}, {"measurement": "T/C", "setting": "dose: 400.0 mg/kg/injection, schedule: Q04DX003 (ip), vehicle: Klucel (hydroxypropylcellulose) (HPC)", "result": "100 % of control"}]}, {"compound": "CCCC(=O)Oc1ccc(/C=N/NC(N)=S)nc1", "values": [{"measurement": "T/C", "setting": "dose: 44.0 mg/kg/injection, schedule: Q01DX009 (ip), vehicle: saline with Tween-80", "result": "172 % of control"}, {"measurement": "T/C", "setting": "[7]", "result": "173 % of control"}, {"measurement": "T/C", "setting": "dose: 66.0 mg/kg/injection, schedule: Q01DX009 (ip), vehicle: saline with Tween-80", "result": "183 % of control"}, {"measurement": "T/C", "setting": "[8]", "result": "201 % of control and 211 % of control"}, {"measurement": "T/C", "setting": "dose: 150.0 mg/kg/injection, schedule: Q01DX009 (ip), vehicle: saline with Tween-80", "result": "227 % of control"}, {"measurement": "T/C", "setting": "[9]", "result": "115 % of control"}]}, {"compound": "CCOC(=S)SCc1nc2ccccc2[nH]1", "values": [{"measurement": "T/C", "setting": "[1]", "result": "90 % of control"}, {"measurement": "T/C", "setting": "[2]", "result": "107 % of control"}, {"measurement": "T/C", "setting": "dose: 400.0 mg/kg/injection, schedule: Q04DX003 (ip), vehicle: saline", "result": "105 % of control"}]}, {"compound": "COc1ccc(C(c2ccc(OC)cc2)C(Cl)(Cl)Cl)cc1", "values": [{"measurement": "T/C", "setting": "[3]", "result": "104 % of control"}, {"measurement": "T/C", "setting": "[4]", "result": "100 % of control"}, {"measurement": "T/C", "setting": "dose: 400.0 mg/kg/injection, schedule: Q01DX001 (ip), vehicle: Klucel (hydroxypropylcellulose) (HPC)", "result": "100 % of control"}]}]}
